Source: ChEMBL document CHEMBL1125556, “Fluoroquinolones: relationships between structural variations, mammalian cell cytotoxicity, and antimicrobial activity” (J Med Chem, 1992)
In brackets after ≈: the same amount, converted by molar mass.

Tests used:
V79 = experiment: Mammalian cell cytotoxicity test in chinese hamster V79 cells (clonogenic cytotoxicity); assay type: functional, cell-based
[1] = Antibacterial activity against five Gram-negative bacteria; assay type: functional
[2] = Cricetulus griseus, V79, read-out: IC50

Row | SMILES | IC50 (V79; [2]) | MIC ([1]; read-out: MIC) | IC50 (V79; v79) | MIC [1]
1 | NC1CCN(c2cc3c(cc2F)c(=O)c(C(=O)O)cn3C2CC2)CC1 | 230 µg/mL (≈ 666 µM) | 0.26 µg/mL (≈ 0.753 µM) |  | 
2 | CCNCC1CCN(c2c(F)cc3c(=O)c(C(=O)O)cn(NC)c3c2F)C1 (stereo unspecified) | > 500 µg/mL | 0.26 µg/mL (≈ 0.684 µM) |  | 
3 | NC1CCCN(c2c(F)cc3c(=O)c(C(=O)O)cn(C4CC4)c3c2Cl)C1 (stereo unspecified) | 24 µg/mL (≈ 63.2 µM) | 0.07 µg/mL (≈ 0.184 µM) |  | 
4 | CNCC1(C)CCN(c2c(F)cc3c(=O)c(C(=O)O)cn(C4CC4)c3c2C(F)(F)F)C1 (stereo unspecified) | 230 µg/mL (≈ 521 µM) | > 30 µg/mL |  | 
5 | NC1CCN(c2cc3c(cc2F)c(=O)c(C(=O)O)cn3C2CC2)C1 (stereo in doubt; 44) |  |  | 72 µg/mL (≈ 217 µM) | 0.09 µg/mL (≈ 0.272 µM)
6 | COc1c(N2CCC(C)(N)C2)c(F)cc2c(=O)c(C(=O)O)cn(C3CC3)c12 (stereo unspecified) | 38 µg/mL (≈ 101 µM) | 0.26 µg/mL (≈ 0.693 µM) |  | 
7 | CCNCC1CCN(c2c(F)cc3c(=O)c(C(=O)O)cn(CC4CC4)c3c2F)C1 (stereo unspecified) | 240 µg/mL (≈ 592 µM) | 4.17 µg/mL (≈ 10.3 µM) |  | 
8 | CCNCC1CCN(c2c(F)cc3c(=O)c(C(=O)O)cn(C4CC4)c3c2OC)C1 (stereo in doubt; 68) |  |  | 22 µg/mL (≈ 54.5 µM) | 0.26 µg/mL (≈ 0.644 µM)
9 | CCNCC1CCN(c2c(F)cc3c(=O)c(C(=O)O)cn(CCO)c3c2F)C1 (stereo unspecified) | > 500 µg/mL | 50 µg/mL (≈ 126 µM) |  | 
10 | NCC1CCN(c2c(F)cc3c(=O)c(C(=O)O)cn(C4CC4)c3c2F)C1 (stereo unspecified) | 11 µg/mL (≈ 30.3 µM) | 0.05 µg/mL (≈ 0.138 µM) |  | 
11 | NC1CCN(c2nc3c(cc2F)c(=O)c(C(=O)O)cn3C2CC2)C1 (stereo unspecified) | 98 µg/mL (≈ 295 µM) | 0.03 µg/mL (≈ 0.0903 µM) |  | 
12 | CCNCC1CCN(c2c(F)c(Cl)c3c(=O)c(C(=O)O)cn(C4CC4)c3c2Cl)C1 (stereo unspecified) | 270 µg/mL (≈ 610 µM) | 0.6 µg/mL (≈ 1.36 µM) |  | 
13 | NC1CCN(c2cc3c(cc2F)c(=O)c(C(=O)O)cn3C2CC2)C1 (stereo in doubt; 24a) | 72 µg/mL (≈ 217 µM) | 0.09 µg/mL (≈ 0.272 µM) |  | 
14 | NC1CCN(c2c(F)cc3c(=O)c(C(=O)O)cn(-c4ccc(F)cc4F)c3c2C(F)(F)F)C1 (stereo unspecified) | 99 µg/mL (≈ 210 µM) | 0.52 µg/mL (≈ 1.1 µM) |  | 
15 | COc1c(N2CCC(C)(CN)C2)c(F)cc2c(=O)c(C(=O)O)cn(C3CC3)c12 (stereo unspecified) | 38 µg/mL (≈ 97.6 µM) | 0.26 µg/mL (≈ 0.668 µM) |  | 
16 | O=C(O)c1cn(C2CC2)c2c(Cl)c(N3CCNCC3)c(F)cc2c1=O | 43 µg/mL (≈ 118 µM) | 0.07 µg/mL (≈ 0.191 µM) |  | 
17 | COc1c(N2CCC(N)C2)c(F)c(N)c2c(=O)c(C(=O)O)cn(C3CC3)c12 (stereo unspecified) | 100 µg/mL (≈ 266 µM) | 0.11 µg/mL (≈ 0.292 µM) |  | 
18 | CNCC1(C)CCN(c2c(F)cc3c(=O)c(C(=O)O)cn(C4CC4)c3c2Cl)C1 (stereo unspecified) | 23 µg/mL (≈ 56.4 µM) | 0.26 µg/mL (≈ 0.637 µM) |  | 
19 | O=C(O)c1cn(C2CC2)c2nc(N3CCCC3)c(F)cc2c1=O | 58 µg/mL (≈ 183 µM) | 0.26 µg/mL (≈ 0.819 µM) |  | 

Row | SMILES | IC50 (V79; [2]) | MIC ([1]; read-out: MIC) | IC50 (V79; v79) | MIC [1]
20 | NC1CCN(c2c(F)cc3c(=O)c(C(=O)O)cn(-c4ccc(F)cc4F)c3c2Cl)C1 (stereo unspecified) | 89 µg/mL (≈ 203 µM) | 0.23 µg/mL (≈ 0.525 µM) |  | 
21 | O=C(O)c1cn(C2CC2)c2c(F)c(N3CCNCC3)c(F)cc2c1=O | 47 µg/mL (≈ 135 µM) | 0.07 µg/mL (≈ 0.2 µM) |  | 
22 | CN1CCN(c2c(F)cc3c(=O)c(C(=O)O)cn(CCF)c3c2F)CC1 [FLEROXACIN] | > 500 µg/mL | 0.35 µg/mL (≈ 0.948 µM) |  | 
23 | Nc1c(N2CCC(N)C2)c(F)cc2c(=O)c(C(=O)O)cn(C3CC3)c12 (stereo unspecified) | 260 µg/mL (≈ 751 µM) | 0.53 µg/mL (≈ 1.53 µM) |  | 
24 | CCNCC1CCN(c2c(F)cc3c(=O)c(C(=O)O)cn(C4CC4)c3c2N)C1 (stereo unspecified) | 290 µg/mL (≈ 747 µM) | 0.91 µg/mL (≈ 2.34 µM) |  | 
25 | NC1CCN(c2c(F)cc3c(=O)c(C(=O)O)cn(C4CC4)c3c2C(F)(F)F)C1 (stereo in doubt; 24e) |  |  | 300 µg/mL (≈ 751 µM) | 0.2 µg/mL (≈ 0.501 µM)
26 | Cc1c(F)c(N2CCC(N)C2)cc2c1c(=O)c(C(=O)O)cn2C1CC1 (stereo unspecified) | 14 µg/mL (≈ 40.5 µM) | 0.09 µg/mL (≈ 0.261 µM) |  | 
27 | CCNCC1CCN(c2c(F)cc3c(=O)c(C(=O)O)cn(C4CC4)c3c2C(F)(F)F)C1 (stereo unspecified) | 120 µg/mL (≈ 272 µM) | 0.6 µg/mL (≈ 1.36 µM) |  | 
28 | Nc1c(F)c(N2CCC(N)C2)c(Cl)c2c1c(=O)c(C(=O)O)cn2C1CC1 (stereo unspecified) | 59 µg/mL (≈ 155 µM) | 0.08 µg/mL (≈ 0.21 µM) |  | 
29 | COc1c(N2CCC(N)C2)c(F)cc2c(=O)c(C(=O)O)cn(C3CC3)c12 (stereo in doubt; 47) |  |  | 44 µg/mL (≈ 122 µM) | 0.07 µg/mL (≈ 0.194 µM)
30 | COc1c(N2CCCC2)c(F)cc2c(=O)c(C(=O)O)cn(C3CC3)c12 | 150 µg/mL (≈ 433 µM) | 0.3 µg/mL (≈ 0.866 µM) |  | 
31 | CC1(n2cc(C(=O)O)c(=O)c3cc(F)c(N4CCC(N)C4)c(F)c32)CC1 (stereo unspecified) | 160 µg/mL (≈ 440 µM) | 0.3 µg/mL (≈ 0.826 µM) |  | 
32 | CCNCC1CCN(c2c(F)cc3c(=O)c(C(=O)O)cn(CCF)c3c2F)C1 (stereo unspecified) | > 500 µg/mL | 0.4 µg/mL (≈ 1.01 µM) |  | 
33 | Cc1c(F)c(N2CCC(N)C2)c(F)c2c1c(=O)c(C(=O)O)cn2C1CC1 (stereo unspecified) | 11 µg/mL (≈ 30.3 µM) | 0.02 µg/mL (≈ 0.055 µM) |  | 
34 | O=C(O)c1cn(C2CC2)c2c(C(F)(F)F)c(N3CCCC3)c(F)cc2c1=O | 280 µg/mL (≈ 729 µM) | 12.5 µg/mL (≈ 32.5 µM) |  | 
35 | CCNCC1CCN(c2cc3c(cc2F)c(=O)c(C(=O)O)cn3-c2ccc(F)cc2F)C1 (stereo in doubt; 36b) | 190 µg/mL (≈ 427 µM) | 0.8 µg/mL (≈ 1.8 µM) |  | 
36 | CCNCC1CCN(c2c(F)cc3c(=O)c(C(=O)O)cn(C4CC4)c3c2OC)C1 (stereo in doubt; 26d) | 22 µg/mL (≈ 54.5 µM) | 0.26 µg/mL (≈ 0.644 µM) |  | 
37 | CC1CN(c2c(F)cc3c(=O)c(C(=O)O)cn(-c4ccc(F)cc4F)c3c2Cl)CCN1 (stereo unspecified) | > 500 µg/mL | 2.07 µg/mL (≈ 4.58 µM) |  | 
38 | COc1c(N2CCC(C)(N)C2)c(F)cc2c(=O)c(C(=O)O)cn(-c3ccc(F)cc3F)c12 (stereo unspecified) | 250 µg/mL (≈ 559 µM) | 0.46 µg/mL (≈ 1.03 µM) |  | 
